This is an account of results in patent US20250320213A1, “Nitrogen-Containing Heterocyclic Compounds” (Pfizer Inc., priority 2024, published 2025).

Molecules are shown by their SMILES. Where a name gives a salt, the structure may show the parent alone. Read-outs that look alike come from different tables or passages of the source.

Test [1] concerns CCL17 secretion in peripheral human whole blood. Nature of the test: Human Whole Blood (HWB) CCL17 TR-FRET Assay (IL-13 stimulated CCL17 secretion). Type of test: cell-based. Summed up: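 Heparinized human whole blood was preincubated with compound (11-point, 3-fold series) for 2 h at 37°C, then stimulated with IL-13 (10 ng/mL final) for 48 h. Serum CCL17 was measured by TR-FRET sandwich immunoassay (665/615 nm ratio) after 16 h at room temperature, giving IC50.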
In general terms: Time-resolved FRET reads energy transfer from a long-lived donor to a nearby acceptor.

A further test concerns the target T1, STAT6 (Homo sapiens, UniProt P42226).
T1 construct: stably transfected HaCaT keratinocyte cell line, which expresses NanoLuc luciferase reporter gene under the transcriptional control of the STAT6 responsive promoter; endogenous in cells; host or cells: HaCaT keratinocyte reporter cell line (stably transfected with a NanoLuc reporter)
T1 sequence (P42226 1-847): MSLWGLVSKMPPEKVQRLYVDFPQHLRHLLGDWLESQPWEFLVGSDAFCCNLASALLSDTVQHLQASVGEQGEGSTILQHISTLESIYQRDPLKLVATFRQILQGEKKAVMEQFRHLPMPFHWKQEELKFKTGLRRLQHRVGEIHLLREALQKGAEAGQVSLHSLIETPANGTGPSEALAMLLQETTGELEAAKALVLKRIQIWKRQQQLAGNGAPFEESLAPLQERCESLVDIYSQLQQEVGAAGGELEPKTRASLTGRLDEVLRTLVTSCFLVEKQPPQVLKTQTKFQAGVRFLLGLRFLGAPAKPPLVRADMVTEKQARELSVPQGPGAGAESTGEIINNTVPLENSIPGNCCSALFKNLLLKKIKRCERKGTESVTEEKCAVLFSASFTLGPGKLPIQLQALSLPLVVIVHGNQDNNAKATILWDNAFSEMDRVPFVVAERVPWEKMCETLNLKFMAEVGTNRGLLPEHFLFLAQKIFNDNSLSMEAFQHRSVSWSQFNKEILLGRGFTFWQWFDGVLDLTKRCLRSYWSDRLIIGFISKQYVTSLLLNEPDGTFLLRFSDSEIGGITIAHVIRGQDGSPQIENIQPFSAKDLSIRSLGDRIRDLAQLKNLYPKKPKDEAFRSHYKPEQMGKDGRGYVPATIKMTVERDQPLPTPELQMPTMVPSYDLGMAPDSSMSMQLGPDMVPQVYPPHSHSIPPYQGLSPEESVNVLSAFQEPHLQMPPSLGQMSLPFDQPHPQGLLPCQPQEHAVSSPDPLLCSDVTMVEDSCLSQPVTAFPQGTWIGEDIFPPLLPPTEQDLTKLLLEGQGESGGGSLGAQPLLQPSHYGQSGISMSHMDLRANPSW
Nature of the test: STAT6 Reporter Luciferase Assay (IL-13 stimulated HaCaT keratinocyte NanoLuc reporter cells). The class given is cell-based. As to conditions: read-out: Reporter EC50. An outline of the steps:
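Luminescence from a NanoLuc reporter driven by the STAT6-responsive IL-13Ra2 promoter in HaCaT keratinocytes serves as the read-out. Compounds are given 2 h before a 4 h stimulation with 0.12 nM IL-13.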

The mark [2] stands for this setting: Homo sapiens, 48 h, human whole blood, 10 ng/mL IL13, 48 hours.
[3] abbreviates: IL-13 stimulated HaCaT STAT6 NanoLuc reporter cells.
The mark [4] stands for this setting: Homo sapiens, 48 h, inhibition of CCL17 secretion in human whole blood, 10 ng/mL IL13, 48 hours.
Where [5] appears, read: STAT6 NanoLuc luciferase reporter, IL-13 stimulated HaCaT keratinocyte cells.
Where [6] appears, read: human whole blood, IL-13 stimulated, 48 hours.
The mark [7] stands for this setting: Homo sapiens, 48 h, human whole blood, IL-13 stimulated.

As a reminder, the IC50 is the concentration that inhibits the measured activity by half. As a reminder, the EC50 is the concentration needed to bring the measured effect to its halfway point.

Molecule `CC(C)n1nc(C(=O)NCc2ccc(NC(=O)N3CCC(C)(O)CC3)cc2)c2c1[C@@H](C)CN(c1ccc(C(=O)N(C)C)cn1)C2` [Example 592, (S)-5-(5-(dimethylcarbamoyl)pyridin-2-yl)-N-(4-(4-hydroxy-4-methylpiperidine-1-carboxamido)benzyl)-1-isopropyl-7-methyl-4,5,6,7-tetrahydro-1H-pyrazolo[4,3-c]pyridine-3-carboxamide] yielded an IC50 in test [1] (setting [2]) of 9 nM. Moreover, the EC50 at STAT6 (setting [3]) was 1 nM.
With `CN(C)C(=O)Nc1ccc(CNC(=O)c2nn(C3CC3)c3c2CN(c2ccc(C(=O)N(C)C)cn2)CC3)cc1` [Example 10, 1-Cyclopropyl-5-(5-(dimethylcarbamoyl)pyridin-2-yl)-N-(4-(3,3-dimethylureido)benzyl)-4,5,6,7-tetrahydro-1H-pyrazolo[4,3-c]pyridine-3-carboxamide trifluoroacetate], in test [1] (setting [4]), it took 94 nM to reach half-maximal inhibition (IC50). Besides, the EC50 on STAT6 (setting [5]) was 11 nM.
Take `CC(C)n1nc(C(=O)NCc2ccc(NC(=O)N(C)C)cc2)c2c1CCN(c1ccc(-n3ccccc3=O)cn1)C2` [Example 108, N-(4-(3,3-dimethylureido)benzyl)-1-isopropyl-5-(2-oxo-2H-[1,3′-bipyridin]-6′-yl)-4,5,6,7-tetrahydro-1H-pyrazolo[4,3-c]pyridine-3-carboxamide]: inhibition in test [1] (setting [4]) was half-maximal at 536 nM (IC50). Also, the EC50 at STAT6 (setting [5]) was determined as 30 nM.
The molecule `CC(C)n1nc(C(=O)NCc2ccc(NC(=O)N(C)C)cc2)c2c1CC(C(F)(F)F)N(c1ccc(C(=O)N(C)C)cn1)C2` (single isomer, unassigned) [Example 276, rel-(R or S)-5-(5-(dimethylcarbamoyl)pyridin-2-yl)-N-(4-(3,3-dimethylureido)benzyl)-1-isopropyl-6-(trifluoromethyl)-4,5,6,7-tetrahydro-1H-pyrazolo[4,3-c]pyridine-3-carboxamide] registered an IC50 in test [1] (setting [6]) of 28 nM. Moreover, the EC50 on STAT6 (setting [3]) was found to be 2 nM.
Regarding `CCn1nc(C(=O)NCc2ccc(NC(=O)NC)cc2)c2c1[C@@H](C)CN(c1ncc(N3CCCC3=O)cn1)C2` [Example 482, (S)-1-ethyl-7-methyl-N-(4-(3-methylureido)benzyl)-5-(5-(2-oxopyrrolidin-1-yl)pyrimidin-2-yl)-4,5,6,7-tetrahydro-1H-pyrazolo[4,3-c]pyridine-3-carboxamide], 25 nM corresponded to half-maximal inhibition in test [1] (setting [7]) (IC50). Further, the EC50 at STAT6 (setting [3]) was determined as 7 nM.
As to `CC(C)n1nc(C(=O)NCc2ccc(NC(=O)N(C)CC3COC3)cc2)c2c1CCN(c1ccc(C(=O)N(C)C)cn1)C2` [Example 168, 5-(5-(dimethylcarbamoyl)pyridin-2-yl)-1-isopropyl-N-(4-(3-methyl-3-(oxetan-3-ylmethyl)ureido)benzyl)-4,5,6,7-tetrahydro-1H-pyrazolo[4,3-c]pyridine-3-carboxamide], in test [1] (setting [4]), the midpoint of inhibition, the IC50, lay at 111 nM. Besides, at STAT6 (setting [5]), the EC50 was determined as 24 nM.
Regarding `CCn1nc(C(=O)NCc2ccc(-c3ncc[nH]3)cc2)c2c1CCN(c1ccc(C(=O)N(C)C)cn1)C2` [Example 21, N-(4-(1H-imidazol-2-yl)benzyl)-5-(5-(dimethylcarbamoyl)pyridin-2-yl)-1-ethyl-4,5,6,7-tetrahydro-1H-pyrazolo[4,3-c]pyridine-3-carboxamide], 217 nM corresponded to half-maximal inhibition in test [1] (setting [4]) (IC50). On STAT6 (setting [5]), the EC50 turned out to be 33 nM.
The like results for `CCC1CN(c2ccc(C(=O)N(C)C)cn2)Cc2c(C(=O)NCc3ccc(NC(=O)N(C)C)cc3)nc(C)n21` (racemic) [Example 130, rac-(R)-7-(5-(dimethylcarbamoyl)pyridin-2-yl)-N-(4-(3,3-dimethylureido)benzyl)-5-ethyl-3-methyl-5,6,7,8-tetrahydroimidazo[1,5-a]pyrazine-1-carboxamide] were, in that order, 77 nM and 23 nM.
Take `CC(C)n1nc(C(=O)NCc2ccc(NC(=O)N(C)C)cc2)c2c1C[C@@H](C)N(c1ccc(C(=O)N(C)C)cn1)C2` [Example 114, (R)-5-(5-(dimethylcarbamoyl)pyridin-2-yl)-N-(4-(3,3-dimethylureido)benzyl)-1-isopropyl-6-methyl-4,5,6,7-tetrahydro-1H-pyrazolo[4,3-c]pyridine-3-carboxamide]: the IC50 in test [1] (setting [4]) was found to be 211 nM. The EC50 at STAT6 (setting [5]) is 20 nM.
Consider `CC(C)n1nc(C(=O)NCc2ccc(NC(=O)N(C)C)cc2)c2c1C(C(F)(F)F)CN(c1ccc(C(=O)N(C)C)cn1)C2` (racemic) [Example 546, rac-(R)-5-(5-(Dimethylcarbamoyl)pyridin-2-yl)-N-(4-(3,3-dimethylureido)benzyl)-1-isopropyl-7-(trifluoromethyl)-4,5,6,7-tetrahydro-1H-pyrazolo[4,3-c]pyridine-3-carboxamide], for which the IC50 in test [1] (setting [2]) came out at 5 nM. The EC50 on STAT6 (setting [3]) was found to be 0.3 nM.
With `CNC(=O)c1ccc(N2CCc3c(c(C(=O)NCc4ccc(NC(N)=O)cc4)nn3C(C)C)C2)nc1` [Example 456, 1-isopropyl-5-(5-(methylcarbamoyl)pyridin-2-yl)-N-(4-ureidobenzyl)-4,5,6,7-tetrahydro-1H-pyrazolo[4,3-c]pyridine-3-carboxamide], the IC50 in test [1] (setting [7]) worked out at 579 nM. Further, the EC50 on STAT6 (setting [3]) came out at 742 nM.
With `CC(C)n1nc(C(=O)NCc2ccc(NC(=O)N(C)C)cc2)c2c1CCN(c1ccc(C3CCCCO3)cn1)C2` (single isomer, unassigned) [Example 394, rel-(R or S)-N-(4-(3,3-dimethylureido)benzyl)-1-isopropyl-5-(5-(tetrahydro-2H-pyran-2-yl)pyridin-2-yl)-4,5,6,7-tetrahydro-1H-pyrazolo[4,3-c]pyridine-3-carboxamide], in test [1] (setting [6]), the IC50 was above 30000 nM. Further, the EC50 at STAT6 (setting [3]) is above 7660 nM.
Consider `CN(C)C(=O)Nc1ccc(CNC(=O)c2nn(C)c3c2CN(c2ncc(C(=O)N(C)C)cn2)CC3C(F)(F)F)cc1` (single isomer, unassigned) [Example 392, rel-(R or S)-5-(5-(dimethylcarbamoyl)pyrimidin-2-yl)-N-(4-(3,3-dimethylureido)benzyl)-1-methyl-7-(trifluoromethyl)-4,5,6,7-tetrahydro-1H-pyrazolo[4,3-c]pyridine-3-carboxamide], for which the IC50 in test [1] (setting [7]) came out at 1080 nM. The EC50 at STAT6 (setting [3]) came out at 568 nM.
Taken in the same sequence, the figures for `CC(C)n1nc(C(=O)NCc2ccc(NC(=O)N(C)C)cc2)c2c1[C@H](C)[C@@H](C)N(c1ccc(C(=O)N(C)C)cn1)C2` (single isomer, unassigned) [Example 354] were 24 nM and 4 nM.
Taken in the same sequence, the figures for `CCC(C)(C)n1nc(C(=O)NCc2ccc(NC(=O)N(C)C)cc2)c2c1CCN(c1ccc(C(=O)N(C)C)cn1)C2` [Example 261, 5-(5-(dimethylcarbamoyl)pyridin-2-yl)-N-(4-(3,3-dimethylureido)benzyl)-1-(tert-pentyl)-4,5,6,7-tetrahydro-1H-pyrazolo[4,3-c]pyridine-3-carboxamide] were above 30000 nM and 3570 nM.
On to `CC(C)n1nc(C(=O)NCc2ccc(NC(=O)N(C)C)cc2)c2c1C(C(F)(F)F)CN(c1ncc(C(=O)N(C)C)cn1)C2` (single isomer, unassigned) [Example 462, rel-(R or S)-5-(5-(dimethylcarbamoyl)pyrimidin-2-yl)-N-(4-(3,3-dimethylureido)benzyl)-1-isopropyl-7-(trifluoromethyl)-4,5,6,7-tetrahydro-1H-pyrazolo[4,3-c]pyridine-3-carboxamide], for which it took 376 nM to reach half-maximal inhibition in test [1] (setting [6]) (IC50). Besides, on STAT6 (setting [3]), the EC50 worked out at 38.7 nM.
Taken in the same sequence, the figures for `CCC1Cc2c(c(C(=O)NCc3ccc(NC(=O)N(C)C)cc3)nn2C)CN1c1ccc(C(=O)N(C)C)cn1` (single isomer, unassigned) [Example 269, rel-(R or S)-5-(5-(dimethylcarbamoyl)pyridin-2-yl)-N-(4-(3,3-dimethylureido)benzyl)-6-ethyl-1-methyl-4,5,6,7-tetrahydro-1H-pyrazolo[4,3-c]pyridine-3-carboxamide] were 834 nM and 87 nM.
